Measured values published in patent US8278312B2, “Imidazo 1,2-a pyrimidine derivatives for the treatment of diseases such as diabetes” (Merck Patent Gesellschaft mit Beschränkter Haftung, priority 2007, dated 2012).

Key:
SGLT1 = biological target: T1, SGLT1 (Homo sapiens, UniProt P13866); experiment: 14C-AMG uptake in BHK cells transfected with SGLT1 (96-well cell-based assay); conditions: 50 μM AMG, 37° C., 90 min
T1 construct: expressed in transfected cells
T1 sequence (P13866 1-664): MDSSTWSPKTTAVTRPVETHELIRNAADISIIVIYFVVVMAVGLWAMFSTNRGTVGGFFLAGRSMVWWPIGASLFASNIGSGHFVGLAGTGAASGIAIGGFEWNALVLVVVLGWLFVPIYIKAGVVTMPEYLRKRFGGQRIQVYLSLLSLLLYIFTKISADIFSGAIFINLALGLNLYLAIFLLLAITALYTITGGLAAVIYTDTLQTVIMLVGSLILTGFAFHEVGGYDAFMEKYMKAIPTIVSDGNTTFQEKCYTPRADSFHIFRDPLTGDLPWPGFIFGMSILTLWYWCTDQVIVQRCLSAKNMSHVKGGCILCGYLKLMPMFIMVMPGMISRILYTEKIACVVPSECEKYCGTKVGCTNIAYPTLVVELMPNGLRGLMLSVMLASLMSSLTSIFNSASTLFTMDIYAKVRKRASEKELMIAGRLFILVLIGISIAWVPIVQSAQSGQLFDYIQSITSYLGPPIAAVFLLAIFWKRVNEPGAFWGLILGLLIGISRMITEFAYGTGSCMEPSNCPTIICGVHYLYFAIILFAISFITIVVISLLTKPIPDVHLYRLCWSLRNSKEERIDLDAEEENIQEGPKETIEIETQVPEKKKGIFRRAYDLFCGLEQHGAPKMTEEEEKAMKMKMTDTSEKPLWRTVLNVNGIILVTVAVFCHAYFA
From the text: (§1) The compounds can be tested for their SGLT inhibition properties by means of BHK cells expressing SGLT1 and SGLT2. The production of the cells and the testing can be carried out as described below.
To construct the SGLT1 expression vector (KL225), the SLC5A1 gene (homologous to NM_000343) was amplified from a cDNA library using standard PCR technology and cloned over NheI/XhoI sites into the pcDNA3.1 expression vector (Invitrogen) containing neomycin as a selection marker. In this vector, transcription uses the enhancer/promoter of human cytomegalovirus.
(§2) The final vector KL225 together with an additional vector containing a dihydrofolate reductase gene as a selection marker was introduced into cells. Transfection into BHK21 cells (ATCC CCL-10), cultivated in DMEM medium (GIBCO/BRL), supplemented with 10% foetal calf serum (FCS) and 20 mM glutamine, was carried out using calcium phosphate transfections according to Graham, F. L. and van der Ebb, A. J. (1973), Virology 52: 456 with 5-20 μg of uncut plasmids for 10^7 cells. Stable transfectants were selected in medium containing 1 mg/ml of G418 (GIBCO/BRL) and 20-5000 nM methotrexate as final concentration, where only cells which expressed the neomycin gene and overexpressed the dhfr gene were able to grow. After growth for 2-3 weeks, the cells were cloned (0.5 cells/well) and the clones were investigated for SGLT expression in radioactivity uptake tests. […]
(§3) A 96-well cell-based assay was developed and adapted to HTS requirements:
(§4) BHK cells (transfected with SGLT1 or SGLT2) were seeded into 96-well microtitre plates (Cultureplates, Perkin Elmer). After at least 24 h, medium was removed, and the cell layer was washed with assay buffer (140 mM NaCl, 2 mM KCl, 1 mM CaCl2, 1 mM MgCl2, 10 mM HEPES, 5 mM Tris, adjusted to pH 7.4 using 1 M KOH). After addition of 40 μl of assay buffer, 50 μl of AMG (50 μM for SGLT1 and 2 mM for SGLT2) in the presence or absence of compounds, the cells were incubated in a total volume of 100 μl at 37° C. for 90 min. Supernatant was removed by suction and discarded. Cells were washed and lysed by addition of 50 μl of water. After 10 min at room temperature, 200 μl of Micrsoscint 40 (Perkin Elmer) were added. The radioactivity was counted in a Topcount microplate scintillation counter (Perkin Elmer). The non-specific uptake was determined in sodium-free assay buffer (266 mM sucrose, 2 mM KCl, 1 mM CaCl2, 1 mM MgCl2, 10 mM HEPES, 5 mM Tris, adjusted to pH 7.4 using 1 M KOH).

SGLT2 = biological target: T2, SGLT2 (Homo sapiens, UniProt P31639); experiment: 14C-AMG uptake in BHK cells transfected with SGLT2 (96-well cell-based assay); conditions: 2 mM AMG, 37° C., 90 min
T2 construct: expressed in transfected cells
T2 sequence (P31639 1-672): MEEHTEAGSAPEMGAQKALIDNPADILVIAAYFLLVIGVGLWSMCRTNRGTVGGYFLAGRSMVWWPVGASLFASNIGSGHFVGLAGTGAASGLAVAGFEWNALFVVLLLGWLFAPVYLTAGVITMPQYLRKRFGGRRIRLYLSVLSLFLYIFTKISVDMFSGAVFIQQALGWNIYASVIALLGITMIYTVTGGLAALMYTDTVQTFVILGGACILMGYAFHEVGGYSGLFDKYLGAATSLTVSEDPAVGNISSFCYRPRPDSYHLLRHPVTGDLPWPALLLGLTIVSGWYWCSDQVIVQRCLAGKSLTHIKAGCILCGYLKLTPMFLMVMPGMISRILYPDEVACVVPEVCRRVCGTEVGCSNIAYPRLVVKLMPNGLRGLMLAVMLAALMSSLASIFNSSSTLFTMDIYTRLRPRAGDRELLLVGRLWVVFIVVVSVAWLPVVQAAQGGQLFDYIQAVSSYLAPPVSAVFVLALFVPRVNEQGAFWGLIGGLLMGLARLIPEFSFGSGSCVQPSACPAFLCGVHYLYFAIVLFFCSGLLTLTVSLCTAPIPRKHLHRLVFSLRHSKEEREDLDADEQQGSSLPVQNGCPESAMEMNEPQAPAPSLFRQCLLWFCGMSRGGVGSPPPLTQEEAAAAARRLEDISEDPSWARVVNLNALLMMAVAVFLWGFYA
From the text: as §1
To construct the SGLT2 expression vector (KL224), the SLC5A2 gene (homologous to NM_003041) was amplified from a cDNA library using standard PCR technology and cloned over NheI/XhoI sites into PCI-neo expression vector (Promega) containing neomycin as a selection marker. In this vector, transcription uses the enhancer/promoter of human cytomegalovirus and the SV40 polyadenylation signal.
as §2, with “KL224” for “KL225”
as §3, §4

| Compound | IC50 (SGLT1) [nM] | IC50 (SGLT2) [nM] |
| --- | --- | --- |
| CNc1nnc(-c2cc(OC)ccc2-c2nc3ncccn3c2Nc2c(C)cccc2C)o1 [Compound A21, (2,6-Dimethylphenyl)-{2-[4-methoxy-2-(5-methylamino-1,3,4-oxadiazol-2-yl)-phenyl]imidazo[1,2-a]pyrimidin-3-yl}-amine] | > 10000 | 10 to 1000 |
| CNc1nnc(-c2ccccc2-c2nc3ncccn3c2Nc2c(C)noc2C)o1 [Compound A25, (3,5-Dimethylisoxazol-4-yl)-{2-[2-(5-methylamino-1,3,4-oxadiazol-2-yl)-phenyl]imidazo[1,2-a]pyrimidin-3-yl}-amine] | > 10000 | > 10000 |
| CNc1nnc(-c2cccc(F)c2-c2nc3ncccn3c2Nc2c(C)cc(F)cc2C)o1 [Compound A27, (4-Fluoro-2,6-dimethylphenyl)-{2-[2-fluoro-6-(5-methylamino-1,3,4-oxadiazol-2-yl)phenyl]imidazo[1,2-a]pyrimidin-3-yl}-amine] | 1000 to 10000 | 10 to 1000 |
| (2,6-Dichlorophenyl)-{2-[2-(5-methyl-amino-1,3,4-oxadiazol-2-yl)phenyl]-imidazo[1,2-a]pyrimidin-3-yl}amine [Compound A14] | 1000 to 10000 | 10 to 1000 |

Next, values leading:

| IC50 (SGLT1) [nM] | IC50 (SGLT2) [nM] | Compound |
| --- | --- | --- |
| 10 to 1000 | 10 to 1000 | CNc1nnc(-c2cccc(Cl)c2-c2nc3ncccn3c2Nc2c(C)cccc2Cl)o1 [Compound A22, {2-[2-Chloro-6-(5-methylamino-1,3,4-oxadiazol-2-yl)phenyl]imidazo[1,2-a]-pyrimidin-3-yl}-(2-chloro-6-methylphenyl)-amine] |
| 10 to 1000 | 10 to 1000 | CNc1nnc(-c2cc(OC)cc(OC)c2-c2nc3ncccn3c2Nc2c(Cl)ccc(C)c2Cl)o1 [Compound A23, (2,6-Dichloro-3-methylphenyl)-{2-[2,4-dimethoxy-6-(5-methylamino-1,3,4-oxadiazol-2-yl)phenyl]imidazo[1,2-a]-pyrimidin-3-yl}amine] |
| 10 to 1000 | 10 to 1000 | CCNC(=O)c1cc(OC)cc(OC)c1-c1nc2ncccn2c1Nc1c(Cl)ccc(C)c1Cl [Compound A24, 2-[3-(2,6-dichloro-3-methylphenylamino)imidazo[1,2-a]-pyrimidin-2-yl]-N-ethyl-3,5-dimethoxybenzamide] |
| 1000 to 10000 | 10 to 1000 | CNc1nnc(-c2cccc(F)c2-c2nc3ncccn3c2Nc2c(C)cccc2Cl)o1 [Compound A26, (2-Chloro-6-methylphenyl)-{2-[2-fluoro-6-(5-methylamino-1,3,4-oxadiazol-2-yl)-phenyl]imidazo[1,2-a]pyrimidin-3-yl}-amine] |
